From PMC11763059, “GENI as an AMPK Activator Binds α and γ Subunits and Improves the Memory Dysfunction of Alzheimer’s Disease Mouse Models via Autophagy and Neuroprotection” (Antioxidants, 2025)

Assays:
[1] = molecular target: T1, AMPK-WT (His-tagged AMPK containing α1β1γ1 protein) (Rattus norvegicus, UniProt P54645+P80385); assay: SPR analysis of binding to purified wild-type AMPK
T1 construct: His (N); made in house
Description: Mammalian AMPK subunits (His-α1, β1, and γ1) were cloned into a pET-3d vector, and protein expression and purification were similar to the literature.
SPR analysis was performed with a Biacore T200 instrument (GE Healthcare). Firstly, the purred His-tagged AMPK containing α1β1γ1 protein was captured onto an activated carboxymethylated 5 (CM5) chip using amine coupling to levels ranging from 4000 RU to 6000 RU. Secondly, GENI was dissolved in PBS-P buffer solution (0.05% (v/v) Tween 20 and PBS), and the concentration of GENI was 64 μM. […] The sample was filtered by pumping through a […] membrane. A gradient concentration of GENI was injected at a flow rate of 30 μL/min in a running buffer (0.05% (v/v) Tween 20 and PBS). The data were analyzed with Biacore evaluation software (T200 version 2.0) and fitted to the 1:1 Langmuir binding model, and the kinetic parameters were derived.

[2] = test system: D-gal-induced AD mice; assay: Immunohistochemistry of brain in D-gal-induced AD mice; assay type: in vivo; conditions: compared with the D-gal group
Description: Each group comprised 10 mice. […] Dosing lasted for 10 weeks. […] The mice were sacrificed after 10 weeks of administration.
(§1) Firstly, the three mice of each group were subjected to heart perfusion at the end of the animal experiment, and the whole brain was removed and placed in 15 mL of 4% paraformaldehyde and stored at 4 °C for 24 h. Secondly, we changed 4% paraformaldehyde into 15% sucrose solution and stored the solution at 4 °C for 24 h. We then changed the solution to 30% sucrose solution to dehydrate for 2 days. Thirdly, the mouse brain tissue was embedded in a cryo-embedding medium, and about 80 slices with a thickness of 20 μm were cut in the hippocampus using a cryostat (Thermal Fisher, Shanghai, China). The sections of mice in each group were immunohistochemically stained with primary antibodies, such as neuronal nuclear anti gen (NeuN), ionized calcium-binding adapter molecule 1 (Iba-1), inducible nitric oxide synthase (iNOS, pro-inflammatory factors), synaptophysin (Syp), and glial fibrillary acidic protein (GFAP), and secondary antibody. The product number and usage ratios of primary and secondary antibodies are detailed in Supplementary Table S4. Finally, the sections were observed under an upright two-photon confocal microscope (Olympus BX61, Tokyo, Japan) and recorded by a camera. The pictures were digitized with ImageJ software V1.8.0.112 (National Institutes of Health, Bethesda, MD, USA).

[3] = test system: natural aging AD mice; assay: Behaviour tests in naturally aged mice with AD; assay type: in vivo
Description: (§2) Each group had 10 mice. GENI was dissolved in ultrapure water and administered by gavage, whereas Dor was dissolved in normal saline. The pH was adjusted to pH 5 with 0.1 M hydrochloric acid to the clarified solution and administered by intraperitoneal injection. The dosing experiment also lasted 10 weeks. Animal behavioral experiments and sampling at the end of the animal experiment were performed as described above.
The Y-maze is mainly used to study the spatial working memory ability of rodents. The Y-maze consisted of three equal-length arms (50 cm × 18 cm × 35 cm), and the angle between each two arms was 120 degrees. The mice were placed at the end of any arm of the Y-maze and allowed to explore freely for 8 min. The behavioral changes including the total number of entries and alternation (successively entering all three arms of the Y-maze once in turn) were recorded. Percentage altercation = alternation/(entries-2) × 100%. The Y-maze could effectively reflect the ability of animals to recognize and remember novel environments.
NOR was used to detect memory in rodents. We prepared a 40 × 40 × 40 cm square box, camera equipment, and behavioral analysis software. We chose three objects A, B, and C, where objects A and B were exactly the same, and object C was very different from objects A and B. After the start of the experiment, the mice were allowed to acclimate freely in the experimental apparatus for 10 min. Objects A and B were placed into the box, and the mice were allowed to explore for 5 min. We then recorded the exploration time and times. After 1 h, A and C or B and C were placed into the box. After letting the mice explore for 5 min, we recorded the exploration time of the original object and the new object. Discrimination index = exploration time of new objects/total exploration time × 100%.
The MWM installation consisted of a circular pool (120 cm in diameter and 50 cm in height), camera equipment, and a computer analysis system. In the first stage, the platform position was fixed, and mice were placed into the pool from any three of the four origins on the pool facing away from the pool wall. The time when it took for the mouse to find the platform within 120 s, called escape latency, was recorded. The training period lasted 4 days. The escape latency of the mice was recorded daily, and the average value was used as an index to evaluate the ability of learning and memory. On the 5th day, the platform was evacuated by the experimenter. The mice were placed against the platform into the water from any water entry point, and they were allowed to swim freely for 60 s. We then recorded the number of times that they crossed the platform.

[4] = test system: natural aging AD mice; assay: Immunohistochemistry and Western blot of brain in naturally aged AD mice; assay type: in vivo; conditions: GENI 25 mg/kg, compared with aged group
Description: as §2, §1
Western blot analysis for p-AMPK α, AMPK α, p-mTOR, mTOR, p-ULK1, ULK1, and LC3-I/II was conducted according to the information described in the materials and methods section of Supplementary Information.
1.3. Western blot analysis. […]
The supernatants of each group were used as protein samples. For animal samples, an appropriate amount of tissue, such as cerebral cortex and hippocampus (50–100 mg), of each group was weighed, and we added lysis buffer with 1:9 ratios. After grinding and centrifuging, the supernatants of each group were used as protein samples. The protein concentration was measured with a BCA assay kit (Beijing Cowin Biotech Company, Beijing, China). Sodium dodecyl sulphate polyacrylamide gel electrophoresis (SDS-PAGE) was used to separate proteins (15 μg), which were transferred to PVDF membranes. The membrane was incubated with primary and secondary antibodies (Supplementary Table S5 for details). Antigens were visualised using a high-sensitivity chemiluminescence detection kit (Beijing Cowin Biotech Company, Beijing, China). Bands were quantitatively measured using ImageJ software (National Institutes of Health, Bethesda, MD, USA).

[5] = DON 3 mg/kg, GENI 12.5, 25, 50 mg/kg groups

T1 sequence (P54645 13-559 limits assumed): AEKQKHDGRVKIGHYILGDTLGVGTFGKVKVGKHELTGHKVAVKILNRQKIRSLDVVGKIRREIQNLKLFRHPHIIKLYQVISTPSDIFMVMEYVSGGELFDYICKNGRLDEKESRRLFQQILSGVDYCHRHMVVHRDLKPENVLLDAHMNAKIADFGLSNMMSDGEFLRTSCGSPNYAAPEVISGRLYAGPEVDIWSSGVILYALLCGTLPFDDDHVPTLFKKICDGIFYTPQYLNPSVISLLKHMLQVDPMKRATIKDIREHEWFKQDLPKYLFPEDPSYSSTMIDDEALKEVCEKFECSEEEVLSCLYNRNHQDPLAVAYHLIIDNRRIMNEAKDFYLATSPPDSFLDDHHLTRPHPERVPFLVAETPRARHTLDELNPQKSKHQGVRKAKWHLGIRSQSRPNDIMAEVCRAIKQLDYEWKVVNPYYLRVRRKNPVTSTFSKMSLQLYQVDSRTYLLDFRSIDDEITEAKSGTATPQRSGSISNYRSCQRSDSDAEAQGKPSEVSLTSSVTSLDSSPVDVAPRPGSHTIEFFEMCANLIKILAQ
T1 sequence (P80386 whole entry partner): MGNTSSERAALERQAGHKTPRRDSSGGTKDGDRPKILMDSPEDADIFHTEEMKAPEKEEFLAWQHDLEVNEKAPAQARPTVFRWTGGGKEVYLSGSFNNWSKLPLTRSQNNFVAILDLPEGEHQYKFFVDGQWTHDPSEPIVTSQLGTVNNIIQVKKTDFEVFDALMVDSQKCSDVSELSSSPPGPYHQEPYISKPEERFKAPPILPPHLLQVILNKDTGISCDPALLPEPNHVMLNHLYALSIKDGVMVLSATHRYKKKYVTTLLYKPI
T1 sequence (P80385 whole entry): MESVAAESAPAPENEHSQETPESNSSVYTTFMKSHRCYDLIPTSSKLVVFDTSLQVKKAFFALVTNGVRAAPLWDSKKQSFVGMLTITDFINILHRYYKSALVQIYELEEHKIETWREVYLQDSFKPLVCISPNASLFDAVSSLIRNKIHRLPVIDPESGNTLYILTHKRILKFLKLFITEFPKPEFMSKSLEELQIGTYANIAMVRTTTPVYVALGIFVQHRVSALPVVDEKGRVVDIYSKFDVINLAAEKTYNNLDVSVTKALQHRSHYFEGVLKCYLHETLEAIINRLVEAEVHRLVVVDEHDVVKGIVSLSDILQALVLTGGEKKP

CC(C)CCOC(=O)C1=CO[C@@H](O[C@@H]2O[C@H](CO)[C@@H](O)[C@H](O)[C@H]2O)C2C(CO)=CCC12 (some centres unmarked) [GENI, Geniposidic 4-isoamyl ester]
Kd ([1]; 1:1 Langmuir binding model): 1.07 µM | kon ([1]; association rate, read-out: Ka): 2320 M⁻¹ s⁻¹ | activation of astrocytes (GFAP) in the cerebral cortex [2]: decreased | activation of microglia (Iba-1) in the cerebral cortex [2]: decreased | expression of iNOS in the cerebral cortex [2]: decreased | Syp intensity in the cerebral cortex [2, 5]: significantly increased | mature neurons (NeuN) in the cerebral cortex and hippocampus [2, 5]: significantly increased | escape latency, first 4 days of the training phase, water maze test ([3]; GENI 25 mg/kg): significantly reduce | number of crossing platforms, fifth day, water maze test ([3]; GENI 25 mg/kg): increase | cognitive function (alternating arm entry rate, novel object recognition index) in Y maze and NOR tests ([3]; GENI 25 mg/kg intragastrically once a day): improvement | APP and Tau of hippocampus CA, DG, and cerebral cortex, Aβ and Tau phosphorylation of cerebral cortex [4]: significantly decreased
